Molecular target: T1, WEE1 (Homo sapiens, UniProt P30291+Q96SW2)
T1 construct: C-terminal ePL-tagged (DiscoverX, Fremont, CA) full-length WEE1 expression construct; expressed in transfected cells; host or cells: LentiX-HEK293T (Invitrogen), lentiviral transduction; co-expressing GSPT1-GN (G576N, lacking the first 158 amino acids)
Assay: WEE1-ePL degradation assay (LentiX-WEE1-ePL-GSPT1-ND cells, InCELL Hunter luminescence, 4 h)
Type: cell-based
Settings: 293T-LentiX WEE1-ePL cells; for DC50: read-out: 293T-LentiX WEE1-ePL Degradation 4 hr (EC50)
Protocol: To generate LentiX-WEE1-ePL-GSPT1-ND cells for the WEE1 degradation assay, LentiX-HEK293T (Invitrogen) were transduced by lentivirus with a C-terminal ePL-tagged (DiscoverX, Fremont, CA) full-length WEE1 expression construct. […] Cells were selected and maintained in complete DMEM media (DMEM, 10% Heat Inactivated FBS, 400 μg/mL Geneticin, and 1 μg/mL puromycin at 37 C and 5% CO2). Cells were passaged every 3-4 days by reseeding 1×10^6 cells in a T150 flask.
Cells were dispensed into 384-well white plates (Corning #3570, NY) that were pre-spotted with compounds using an acoustic dispenser (Echo acoustic transfer system, Beckman Coulter Life Sciences, Carlsbad, CA) as a 10-point dose-response curve with a 3-fold dilution starting at either 1 uM or 10 uM and including a DMSO control. Twenty-five microliters of media containing 2500 cells for LentiX-oeWEE1-ePL was dispensed per well. Assay plates were incubated at 37° C. with 5% CO2 for four hours (WEE1) After incubation, 25 μL of the InCELL Hunter™ Detection Reagent Working Solution (DiscoverX, Fremont, CA) was added to each well and incubated at room temperature for 30 minutes protected from light. After 30 minutes, luminescence was read on a PHERAstar luminometer (Cary, NC).
To determine the half-maximal effective concentration (EC50) values for WEE1-ePL degradation, a four parameter logistic model was used: (Sigmoidal Dose-Response Model) (FIT=(A+((B−A)/1+((C/x)^D)))) where C is the inflection point (EC50), D is the Hill slope, and A and B are the low and high limits of the fit respectively). The lower limit of the fit (value A) is referred to as Ymin. […] The maximum limit constraint, Ymax, is similarly derived using DMSO control. The curves were processed and evaluated using Activity Base (IDBS, Alameda, CA).

[1] = lower limit of the fit (0 = luciferase inhibitor, Ymax = DMSO control)
[2] = lower limit of the fit (Ymin=0 luciferase inhibitor, Ymax DMSO control)

| Structure (SMILES) | 293T-LentiX WEE1-ePL Degradation 4 hr (Ymin) [1] | DC50 [nM] | 293T-LentiX WEE1-ePL Degradation 4 hr (Ymin) [2] |
| --- | --- | --- | --- |
| O=C1CCC(N2Cc3cc(O[C@H]4CCN(Cc5cccc6nccnc56)C4)ccc3C2=O)C(=O)N1 (stereo partly drawn) [3-(1-oxo-5-{[(3S)-1-[(quinoxalin-5-yl)methyl]pyrrolidin-3-yl]oxy}-2,3-dihydro-1H-isoindol-2-yl)piperidine-2,6-dione] | 53.34 | 174 |  |
| O=C1CCC(N2Cc3ccc(O[C@@H]4CCN(Cc5cnc6ccccc6c5)C4)cc3C2=O)C(=O)N1 (stereo partly drawn) [3-(1-oxo-6-{[(3R)-1-[(quinolin-3-yl)methyl]pyrrolidin-3-yl]oxy}-2,3-dihydro-1H-isoindol-2-yl)piperidine-2,6-dione] | 89.42 |  |  |
| Cc1nc(C)c(CN2CC[C@@H](Oc3ccc4c(c3)CN(C3CCC(=O)NC3=O)C4=O)C2)s1 (stereo partly drawn) [3-(5-{[(3R)-1-[(2,4-dimethyl-1,3-thiazol-5-yl)methyl]pyrrolidin-3-yl]oxy}-1-oxo-2,3-dihydro-1H-isoindol-2-yl)piperidine-2,6-dione] |  |  | 94.2 |
| COC[C@@H]1CCC[C@@H](c2ccc3cc(CN4CC[C@H](Oc5ccc6c(c5)CN(C5CCC(=O)NC5=O)C6=O)C4)ccc3n2)C1 (stereo partly drawn) [3-(5-{[(3S)-1-({2-[(1R,3R)-3-(methoxymethyl)cyclohexyl]quinolin-6-yl}methyl)pyrrolidin-3-yl]oxy}-1-oxo-2,3-dihydro-1H-isoindol-2-yl)piperidine-2,6-dione] |  | 2.17 | 26.54 |
| COC[C@H]1CCC[C@@H](c2ccc3cc(CN4CC[C@H](Oc5ccc6c(c5)CN(C5CCC(=O)NC5=O)C6=O)C4)ccc3n2)C1 (stereo partly drawn) [3-(5-{[(3S)-1-({2-[(1R,3S)-3-(methoxymethyl)cyclohexyl]quinolin-6-yl}methyl)pyrrolidin-3-yl]oxy}-1-oxo-2,3-dihydro-1H-isoindol-2-yl)piperidine-2,6-dione] |  | 1.82 | 26.32 |
| Nc1cccc(COc2ccccc2CN2CC[C@H](Oc3ccc4c(c3)CN(C3CCC(=O)NC3=O)C4=O)C2)c1 (stereo partly drawn) [3-(5-{[(3S)-1-({2-[(3-aminophenyl)methoxy]phenyl}methyl)pyrrolidin-3-yl]oxy}-1-oxo-2,3-dihydro-1H-isoindol-2-yl)piperidine-2,6-dione] | 92.17 |  |  |
| Nc1cccc(COc2cccc(CN3CC[C@H](Oc4ccc5c(c4)CN(C4CCC(=O)NC4=O)C5=O)C3)c2)c1 (stereo partly drawn) [3-(5-{[(3S)-1-({3-[(3-aminophenyl)methoxy]phenyl}methyl)pyrrolidin-3-yl]oxy}-1-oxo-2,3-dihydro-1H-isoindol-2-yl)piperidine-2,6-dione] | 78.15 | 818 |  |
| O=C1CCC(N2Cc3cc(O[C@H]4CCN(Cc5cccc6nccn56)C4)ccc3C2=O)C(=O)N1 (stereo partly drawn) [3-(5-{[(3S)-1-({imidazo[1,2-a]pyridin-5-yl}methyl)pyrrolidin-3-yl]oxy}-1-oxo-2,3-dihydro-1H-isoindol-2-yl)piperidine-2,6-dione] | 57.26 | 183 |  |
| O=C1CCC(N2Cc3cc(O[C@H]4CCN(Cc5ccc6cnccc6n5)C4)ccc3C2=O)C(=O)N1 (stereo partly drawn) [3-(5-{[(3S)-1-[(1,6-naphthyridin-2-yl)methyl]pyrrolidin-3-yl]oxy}-1-oxo-2,3-dihydro-1H-isoindol-2-yl)piperidine-2,6-dione] | 42.7 | 109 |  |
| O=C1CCC(N2Cc3cc(O[C@H]4CCN(Cc5ccnc6ncccc56)C4)ccc3C2=O)C(=O)N1 (stereo partly drawn) [3-(5-{[(3S)-1-[(1,8-naphthyridin-4-yl)methyl]pyrrolidin-3-yl]oxy}-1-oxo-2,3-dihydro-1H-isoindol-2-yl)piperidine-2,6-dione] | 96.5 |  |  |
| Cc1nccc(CN2CC[C@H](Oc3ccc4c(c3)CN(C3CCC(=O)NC3=O)C4=O)C2)c1C (stereo partly drawn) [3-(5-{[(3S)-1-[(2,3-dimethylpyridin-4-yl)methyl]pyrrolidin-3-yl]oxy}-1-oxo-2,3-dihydro-1H-isoindol-2-yl)piperidine-2,6-dione] | 43.42 | 54.5 |  |
| COc1nc2ccccc2cc1CN1CC[C@H](Oc2ccc3c(c2)CN(C2CCC(=O)NC2=O)C3=O)C1 (stereo partly drawn) [3-(5-{[(3S)-1-[(2-methoxyquinolin-3-yl)methyl]pyrrolidin-3-yl]oxy}-1-oxo-2,3-dihydro-1H-isoindol-2-yl)piperidine-2,6-dione] | 45.09 | 18.3 |  |
| NCc1ccccc1COc1ccccc1CN1CC[C@H](Oc2ccc3c(c2)CN(C2CCC(=O)NC2=O)C3=O)C1 (stereo partly drawn) [3-(5-{[(3S)-1-[(2-{[2-(aminomethyl)phenyl]methoxy}phenyl)methyl]pyrrolidin-3-yl]oxy}-1-oxo-2,3-dihydro-1H-isoindol-2-yl)piperidine-2,6-dione] | 89.91 |  |  |
| NCc1cccc(COc2ccccc2CN2CC[C@H](Oc3ccc4c(c3)CN(C3CCC(=O)NC3=O)C4=O)C2)c1 (stereo partly drawn) [3-(5-{[(3S)-1-[(2-{[3-(aminomethyl)phenyl]methoxy}phenyl)methyl]pyrrolidin-3-yl]oxy}-1-oxo-2,3-dihydro-1H-isoindol-2-yl)piperidine-2,6-dione] | 87.63 |  |  |
| NCc1ccc(COc2ccccc2CN2CC[C@H](Oc3ccc4c(c3)CN(C3CCC(=O)NC3=O)C4=O)C2)cc1 (stereo partly drawn) [3-(5-{[(3S)-1-[(2-{[4-(aminomethyl)phenyl]methoxy}phenyl)methyl]pyrrolidin-3-yl]oxy}-1-oxo-2,3-dihydro-1H-isoindol-2-yl)piperidine-2,6-dione] | 88.71 |  |  |
| NCc1ccccc1COc1cccc(CN2CC[C@H](Oc3ccc4c(c3)CN(C3CCC(=O)NC3=O)C4=O)C2)c1 (stereo partly drawn) [3-(5-{[(3S)-1-[(3-{[2-(aminomethyl)phenyl]methoxy}phenyl)methyl]pyrrolidin-3-yl]oxy}-1-oxo-2,3-dihydro-1H-isoindol-2-yl)piperidine-2,6-dione] | 74.31 |  |  |
| NCc1cccc(COc2cccc(CN3CC[C@H](Oc4ccc5c(c4)CN(C4CCC(=O)NC4=O)C5=O)C3)c2)c1 (stereo partly drawn) [3-(5-{[(3S)-1-[(3-{[3-(aminomethyl)phenyl]methoxy}phenyl)methyl]pyrrolidin-3-yl]oxy}-1-oxo-2,3-dihydro-1H-isoindol-2-yl)piperidine-2,6-dione] | 81.05 |  |  |
| NCc1ccc(COc2cccc(CN3CC[C@H](Oc4ccc5c(c4)CN(C4CCC(=O)NC4=O)C5=O)C3)c2)cc1 (stereo partly drawn) [3-(5-{[(3S)-1-[(3-{[4-(aminomethyl)phenyl]methoxy}phenyl)methyl]pyrrolidin-3-yl]oxy}-1-oxo-2,3-dihydro-1H-isoindol-2-yl)piperidine-2,6-dione] | 87 |  |  |
| O=C1CCC(N2Cc3cc(O[C@H]4CCN(Cc5ccc6nc(C7CCOCC7)ccc6c5)C4=O)ccc3C2=O)C(=O)N1 (stereo partly drawn) [3-(5-{[(3S)-1-{[2-(oxan-4-yl)quinolin-6-yl]methyl}-2-oxopyrrolidin-3-yl]oxy}-1-oxo-2,3-dihydro-1H-isoindol-2-yl)piperidine-2,6-dione] |  |  | 80.98 |
| O=C1CCC(N2Cc3cc(O[C@H]4CCN(Cc5cccc(OC(F)F)c5)C4)ccc3C2=O)C(=O)N1 (stereo partly drawn) [3-(5-{[(3S)-1-{[3-(difluoromethoxy)phenyl]methyl}pyrrolidin-3-yl]oxy}-1-oxo-2,3-dihydro-1H-isoindol-2-yl)piperidine-2,6-dione] | 75.96 | 196 |  |
| O=C1CCC(N2Cc3ccc(O[C@H]4CCN(Cc5ccc6cnccc6c5)C4)cc3C2=O)C(=O)N1 (stereo partly drawn) [3-(6-{[(3S)-1-[(isoquinolin-6-yl)methyl]pyrrolidin-3-yl]oxy}-1-oxo-2,3-dihydro-1H-isoindol-2-yl)piperidine-2,6-dione] | 80.095 |  |  |
| O=C1CC[C@H](N2Cc3cc(O[C@H]4CCN(Cc5ccc6nc(C7CCOCC7)ccc6c5Cl)C4)ccc3C2=O)C(=O)N1 [(3S)-3-(5-{[(3S)-1-{[5-chloro-2-(oxan-4-yl)quinolin-6-yl]methyl}pyrrolidin-3-yl]oxy}-1-oxo-2,3-dihydro-1H-isoindol-2-yl)piperidine-2,6-dione] |  | 2.8 | 28.82 |
| O=C1CC[C@H](N2Cc3cc(O[C@H]4CCN(Cc5ccc6nc(N7CCOCC7)ncc6c5F)C4)ccc3C2=O)C(=O)N1 [(3S)-3-(5-{[(3S)-1-{[5-fluoro-2-(morpholin-4-yl)quinazolin-6-yl]methyl}pyrrolidin-3-yl]oxy}-1-oxo-2,3-dihydro-1H-isoindol-2-yl)piperidine-2,6-dione] |  | 3.27 | 32.24 |
